Legend:
Format in all cases: in vivo
Johnsongrass [1] = test: Post-emergent herbicidal test; details: 4 WAT, 11.2 kg/h; note: ranges in brackets are in %
Procedure: (§1) The post-emergent tests were conducted as follows:
(§2) The active ingredients are applied in spray form to two or three week old specimens of various plant species. The spray, a solution or wettable powder suspension containing the appropriate rate of active ingredient to give the desired test rate and a surfactant, is applied to the plants.
(§3) The compounds were also tested by utilizing the above procedure on the following plant species: […]

Cocklebur [2] = test: Post-emergent herbicidal test; details: 4 WAT; note: ranges in brackets are in %
Procedure: as §1, §2, §3

Yellow Nutsedge [3] = test: Post-emergent herbicidal test; details: 4 WAT, 11.2 kg/h; note: ranges in brackets are in %
Procedure: as §1, §2, §3

Velvetleaf [4] = test: Post-emergent herbicidal test; details: 4 WAT; note: ranges in brackets are in %
Procedure: as §1, §2, §3

Barnyardgrass [5] = test: Post-emergent herbicidal test; details: 4 WAT; note: ranges in brackets are in %
Procedure: as §1, §2, §3

Smartweed [6] = test: Post-emergent herbicidal test; details: 4 WAT; note: ranges in brackets are in %
Procedure: as §1, §2, §3

Downy Brome [7] = test: Post-emergent herbicidal test; details: 4 WAT; note: ranges in brackets are in %
Procedure: as §1, §2, §3

Canada Thistle [8] = test: Post-emergent herbicidal test; details: 4 WAT, 11.2 kg/h; note: ranges in brackets are in %
Procedure: as §1, §2, §3

Quackgrass [9] = test: Post-emergent herbicidal test; details: 4 WAT, 11.2 kg/h; note: ranges in brackets are in %
Procedure: as §1, §2, §3

Lambsquarters [10] = test: Post-emergent herbicidal test; details: 4 WAT; note: ranges in brackets are in %
Procedure: as §1, §2, §3

Morningglory [11] = test: Post-emergent herbicidal test; details: 4 WAT; note: ranges in brackets are in %
Procedure: as §1, §2, §3

Hemp Sesbania [12] = test: Post-emergent herbicidal test; details: 4 WAT; note: ranges in brackets are in %
Procedure: as §1, §2

Sorghum [13] = test: Post-emergent herbicidal test; details: 4 WAT; note: ranges in brackets are in %
Procedure: as §1, §2

Wheat [14] = test: Post-emergent herbicidal test; details: 4 WAT; note: ranges in brackets are in %
Procedure: as §1, §2

Wild Buckwheat [15] = test: Post-emergent herbicidal test; details: 4 WAT; note: ranges in brackets are in %
Procedure: as §1, §2

Soybean [16] = test: Post-emergent herbicidal test; details: 4 WAT; note: ranges in brackets are in %
Procedure: as §1, §2

Rice [17] = test: Post-emergent herbicidal test; details: 4 WAT; note: ranges in brackets are in %
Procedure: as §1, §2

Crabgrass [18] = test: Post-emergent herbicidal test; details: 4 WAT; note: ranges in brackets are in %
Procedure: as §1, §2

Panicum Spp. [19] = test: Post-emergent herbicidal test; details: 4 WAT; note: ranges in brackets are in %
Procedure: as §1, §2

Sugarbeet [20] = test: Post-emergent herbicidal test; details: 4 WAT; note: ranges in brackets are in %
Procedure: as §1, §2

Johnsongrass [21] = test: Pre-emergent herbicidal test; details: 4 WAT, 11.2 kg/h; note: ranges in brackets are in %
Procedure: (§4) The pre-emergent test was conducted as follows:
(§5) A good grade of top soil was placed in aluminum pans and compacted to a depth of three-eighths to one-half inch from the top of the pan. On the top of the soil was placed a predetermined number of seeds or vegetative propagules of various plant species which were pressed into the soil surface. The soil required to level fill the pans after seeding or adding vegetative propagules was weighed into a pan. A known amount of the active ingredient applied in a solvent or as a wettable powder and the soil were thoroughly mixed, and used as a cover layer for prepared pans.
(§6) The herbicidal rating was obtained by means of a fixed scale based on the percent injury of each plant species. The ratings are defined as follows: […]
as §3

Cocklebur [22] = test: Pre-emergent herbicidal test; details: 4 WAT; note: ranges in brackets are in %
Procedure: as §4, §5, §6, §3

Yellow Nutsedge [23] = test: Pre-emergent herbicidal test; details: 4 WAT, 11.2 kg/h; note: ranges in brackets are in %
Procedure: as §4, §5, §6, §3

Velvetleaf [24] = test: Pre-emergent herbicidal test; details: 4 WAT; note: ranges in brackets are in %
Procedure: as §4, §5, §6, §3

Barnyardgrass [25] = test: Pre-emergent herbicidal test; details: 4 WAT; note: ranges in brackets are in %
Procedure: as §4, §5, §6, §3

Smartweed [26] = test: Pre-emergent herbicidal test; details: 4 WAT; note: ranges in brackets are in %
Procedure: as §4, §5, §6, §3

Downy Brome [27] = test: Pre-emergent herbicidal test; details: 4 WAT; note: ranges in brackets are in %
Procedure: as §4, §5, §6, §3

Canada Thistle [28] = test: Pre-emergent herbicidal test; details: 4 WAT, 11.2 kg/h; note: ranges in brackets are in %
Procedure: as §4, §5, §6, §3

Quackgrass [29] = test: Pre-emergent herbicidal test; details: 4 WAT, 11.2 kg/h; note: ranges in brackets are in %
Procedure: as §4, §5, §6, §3

Lambsquarters [30] = test: Pre-emergent herbicidal test; details: 4 WAT; note: ranges in brackets are in %
Procedure: as §4, §5, §6, §3

Morningglory [31] = test: Pre-emergent herbicidal test; details: 4 WAT; note: ranges in brackets are in %
Procedure: as §4, §5, §6, §3

corn = test: Growth regulation of corn (dipping); details: 1330 ppm
Hemp Sesbania [32] = test: Pre-emergent herbicidal test; details: 4 WAT; note: ranges in brackets are in %
Procedure: as §4, §5, §6

Sorghum [33] = test: Pre-emergent herbicidal test; details: 4 WAT; note: ranges in brackets are in %
Procedure: as §4, §5, §6

Wheat [34] = test: Pre-emergent herbicidal test; details: 4 WAT; note: ranges in brackets are in %
Procedure: as §4, §5, §6

Wild Buckwheat [35] = test: Pre-emergent herbicidal test; details: 4 WAT; note: ranges in brackets are in %
Procedure: as §4, §5, §6

Soybean [36] = test: Pre-emergent herbicidal test; details: 4 WAT; note: ranges in brackets are in %
Procedure: as §4, §5, §6

Rice [37] = test: Pre-emergent herbicidal test; details: 4 WAT; note: ranges in brackets are in %
Procedure: as §4, §5, §6

Crabgrass [38] = test: Pre-emergent herbicidal test; details: 4 WAT; note: ranges in brackets are in %
Procedure: as §4, §5, §6

Panicum Spp. [39] = test: Pre-emergent herbicidal test; details: 4 WAT; note: ranges in brackets are in %
Procedure: as §4, §5, §6

Sugarbeet [40] = test: Pre-emergent herbicidal test; details: 4 WAT; note: ranges in brackets are in %
Procedure: as §4, §5, §6

Ethyl 2-[3-[3-(Trifluoromethyl)Phenyl]-5-Isoxazolyl]Benzoate [Example 4]
herbicidal rating (Johnsongrass [1]): 1 (25-49) | herbicidal rating (Cocklebur [2]; 1.12 kg/h): 2 (50-74) | herbicidal rating (Cocklebur [2]; 5.60 kg/h): 2 (50-74) | herbicidal rating (Cocklebur [2]; 11.2 kg/h): 1 (25-49) | herbicidal rating (Yellow Nutsedge [3]): 1 (25-49) | herbicidal rating (Velvetleaf [4]; 1.12 kg/h): 2 (50-74) | herbicidal rating (Velvetleaf [4]; 5.60 kg/h): 1 (25-49) | herbicidal rating (Velvetleaf [4]; 11.2 kg/h): 2 (50-74) | herbicidal rating (Barnyardgrass [5]; 1.12 kg/h): 2 (50-74) | herbicidal rating (Barnyardgrass [5]; 5.60 kg/h): 3 (75-99) | herbicidal rating (Barnyardgrass [5]; 11.2 kg/h): 3 (75-99) | herbicidal rating (Smartweed [6]; 1.12 kg/h): 2 (50-74) | herbicidal rating (Smartweed [6]; 5.60 kg/h): 4 (100) | herbicidal rating (Smartweed [6]; 11.2 kg/h): 2 (50-74) | herbicidal rating (Downy Brome [7]; 1.12 kg/h): 0 (0-24) | herbicidal rating (Downy Brome [7]; 5.60 kg/h): 0 (0-24) | herbicidal rating (Downy Brome [7]; 11.2 kg/h): 0 (0-24) | herbicidal rating (Canada Thistle [8]): 2 (50-74) | herbicidal rating (Quackgrass [9]): 1 (25-49) | herbicidal rating (Lambsquarters [10]; 1.12 kg/h): 1 (25-49) | herbicidal rating (Lambsquarters [10]; 5.60 kg/h): 2 (50-74) | herbicidal rating (Lambsquarters [10]; 11.2 kg/h): 3 (75-99) | herbicidal rating (Morningglory [11]; 1.12 kg/h): 2 (50-74) | herbicidal rating (Morningglory [11]; 5.60 kg/h): 2 (50-74) | herbicidal rating (Morningglory [11]; 11.2 kg/h): 2 (50-74) | herbicidal rating (Hemp Sesbania [12]; 1.12 kg/h): 2 (50-74) | herbicidal rating (Hemp Sesbania [12]; 5.60 kg/h): 2 (50-74) | herbicidal rating (Sorghum [13]; 1.12 kg/h): 1 (25-49) | herbicidal rating (Sorghum [13]; 5.60 kg/h): 2 (50-74) | herbicidal rating (Wheat [14]; 1.12 kg/h): 0 (0-24) | herbicidal rating (Wheat [14]; 5.60 kg/h): 1 (25-49) | herbicidal rating (Wild Buckwheat [15]; 1.12 kg/h): 2 (50-74) | herbicidal rating (Wild Buckwheat [15]; 5.60 kg/h): 2 (50-74) | herbicidal rating (Soybean [16]; 1.12 kg/h): 2 (50-74) | herbicidal rating (Soybean [16]; 5.60 kg/h): 2 (50-74) | herbicidal rating (Rice [17]; 1.12 kg/h): 1 (25-49) | herbicidal rating (Rice [17]; 5.60 kg/h): 1 (25-49) | herbicidal rating (Crabgrass [18]; 1.12 kg/h): 1 (25-49) | herbicidal rating (Crabgrass [18]; 5.60 kg/h): 2 (50-74) | herbicidal rating (Panicum Spp. [19]; 1.12 kg/h): 0 (0-24) | herbicidal rating (Panicum Spp. [19]; 5.60 kg/h): 1 (25-49) | herbicidal rating (Sugarbeet [20]; 1.12 kg/h): 1 (25-49) | herbicidal rating (Sugarbeet [20]; 5.60 kg/h): 2 (50-74) | herbicidal rating (Johnsongrass [21]): 0 (0-24) | herbicidal rating (Cocklebur [22]; 1.12 kg/h): 0 (0-24) | herbicidal rating (Cocklebur [22]; 5.60 kg/h): 1 (25-49) | herbicidal rating (Cocklebur [22]; 11.2 kg/h): 1 (25-49) | herbicidal rating (Yellow Nutsedge [23]): 0 (0-24) | herbicidal rating (Velvetleaf [24]; 1.12 kg/h): 0 (0-24) | herbicidal rating (Velvetleaf [24]; 5.60 kg/h): 1 (25-49) | herbicidal rating (Velvetleaf [24]; 11.2 kg/h): 2 (50-74) | herbicidal rating (Barnyardgrass [25]; 1.12 kg/h): 3 (75-100) | herbicidal rating (Barnyardgrass [25]; 5.60 kg/h): 3 (75-100) | herbicidal rating (Barnyardgrass [25]; 11.2 kg/h): 3 (75-100) | herbicidal rating (Smartweed [26]; 1.12 kg/h): 3 (75-100) | herbicidal rating (Smartweed [26]; 5.60 kg/h): 3 (75-100) | herbicidal rating (Smartweed [26]; 11.2 kg/h): 2 (50-74) | herbicidal rating (Downy Brome [27]; 1.12 kg/h): 1 (25-49) | herbicidal rating (Downy Brome [27]; 5.60 kg/h): 2 (50-74) | herbicidal rating (Downy Brome [27]; 11.2 kg/h): 2 (50-74) | herbicidal rating (Canada Thistle [28]): 2 (50-74) | herbicidal rating (Quackgrass [29]): 2 (50-74) | herbicidal rating (Lambsquarters [30]; 1.12 kg/h): 3 (75-100) | herbicidal rating (Lambsquarters [30]; 5.60 kg/h): 2 (50-74) | herbicidal rating (Lambsquarters [30]; 11.2 kg/h): 2 (50-74) | herbicidal rating (Morningglory [31]; 1.12 kg/h): 2 (50-74) | herbicidal rating (Morningglory [31]; 5.60 kg/h): 3 (75-100) | herbicidal rating (Morningglory [31]; 11.2 kg/h): 2 (50-74) | Observations (corn): reduction in stature and "buggy whipping" of the leaves | herbicidal rating (Hemp Sesbania [32]; 1.12 kg/h): 1 (25-49) | herbicidal rating (Hemp Sesbania [32]; 5.60 kg/h): 2 (50-74) | herbicidal rating (Sorghum [33]; 1.12 kg/h): 2 (50-74) | herbicidal rating (Sorghum [33]; 5.60 kg/h): 3 (75-100) | herbicidal rating (Wheat [34]; 1.12 kg/h): 0 (0-24) | herbicidal rating (Wheat [34]; 5.60 kg/h): 1 (25-49) | herbicidal rating (Wild Buckwheat [35]; 1.12 kg/h): 2 (50-74) | herbicidal rating (Wild Buckwheat [35]; 5.60 kg/h): 2 (50-74) | herbicidal rating (Soybean [36]; 1.12 kg/h): 1 (25-49) | herbicidal rating (Soybean [36]; 5.60 kg/h): 3 (75-100) | herbicidal rating (Rice [37]; 1.12 kg/h): 3 (75-100) | herbicidal rating (Rice [37]; 5.60 kg/h): 3 (75-100) | herbicidal rating (Crabgrass [38]; 1.12 kg/h): 1 (25-49) | herbicidal rating (Crabgrass [38]; 5.60 kg/h): 3 (75-100) | herbicidal rating (Panicum Spp. [39]; 1.12 kg/h): 2 (50-74) | herbicidal rating (Panicum Spp. [39]; 5.60 kg/h): 3 (75-100) | herbicidal rating (Sugarbeet [40]; 1.12 kg/h): 1 (25-49) | herbicidal rating (Sugarbeet [40]; 5.60 kg/h): 2 (50-74)

Source: patent publication US4229204A, “Trifluoromethylphenyl isoxazolyl benzoates” (Monsanto Company, priority 1978, dated 1980)
